Entries after “also recorded” stand apart in the source; their conditions may differ. Like-named read-outs stand apart in the source and are kept apart here.
What was measured:
[1] = system: mice with adenine diet-induced chronic kidney disease; test: 8 week adenine diet CKD study, SK-124 versus once daily PTH injections; type: in vivo, mouse (female CD1); conditions: 8 weeks
Procedure: FIGS. 4A-4D. […] (A) Study design: Female CD1 mice (n=8/group) were treated with control or 0.2% adenine diet starting at […] of age along with vehicle, PTH (80 mcg/kg/d, IP injections) or SK-124 (40 mg/kg) treatment by oral gavage once daily. Mice were treated for 8 weeks. (B, C) After 8 weeks of treatment, the indicated serum analyte was measured. (D) Whole kidney RNA from the indicated groups was analyzed by RT-qPCR for the indicated fibrosis marker gene.
(§1) 7-week-old female CD1 mice were obtained from Charles River Laboratories (Wilmington, MA) and were fed on 0.2% adenine containing diet (TD.130900; 0.2% Adenine, 0.9% Phosphate, 0.5% Calcium; Envigo) or control diet (TD. 96348) for 6 or 8 weeks to induce chronic kidney disease (CKD). Mice were oral gavaged with 40 mg/kg SK-124, or intraperitonially injected with 80 μg/kg PTH, or treated with vehicle 5 days a week for the duration of the special diet.
(§2) For studies with Ubiquitin-Cre^ERt2; Sik2^ff; Sik3^ff mice (JAX #007001 for Ubiquitin-Cre^ERt2: RRID:MGL:5905012 for Sik2 foxed mice; and Sik3^tmla(EUCOMM)Hmgu mice (RRID:MGI:5085429) bred to PGK1 FLPo mice (JAX #011065) in order to generate Sik3 foxed mice), tamoxifen was injected (1 mg, IP, Q48 hours, 3 injections total) in all animals including Cre-negative control littermates housed in cages with Pure-o′Cel bedding at 5 weeks of age. Mice were then fed on 0.2% adenine diet from 6 weeks to 9 weeks of age. Mice were fasted for 6 hours and treated with SK-124 and PTH 4 hours and 2 hours before the sacrifice. Blood and spot urine samples were collected by cheek pouch bleeding and by pipetting urine collected on hydrophobic sand (Labsand; Braintree, MA). Kidneys were immediately snap-frozen in liquid nitrogen for TRIzol (Life Technologies)-Chloroform (Fischer Scientific) based RNA isolation or protein isolation, or fixed in 10% formalin at 4C for 24 hrs for histology. All serum and urine measurements were performed using commercial bioassay detection reagents listed in Table 1, following the manufacturers' instructions. Urine protein levels were measured by Bradford assay and normalized to urine creatinine.
cDNA was prepared using Primescript RT kit (Takara Inc), with 750 ng RNA per reaction. RT-qPCR was performed by using PerfeCa® SYBR® Green FAstMix® ROX (Quanta bio) in the StepOnePlus™ Real-time PCR System (Applied Biosystems). Hmbs was used as a control housekeeping gene for mouse samples, and B-Actin was used for organoids, relative expression was calculated (2^-deltaCT method) and compared to the mean of control group if necessary. Primers used for RT-qPCR are listed in Table 2 (mouse primers) and Table 3 (human primers).

[2] = system: mice with adenine-induced chronic kidney disease; test: adenine diet-induced CKD in mice, 6 weeks: body weight, renal function, mineral metabolism, histology; type: in vivo, mouse (female CD1)
Procedure: (§3) FIGS. 1A-1E. […] (A) Study design: Female CD1 mice (n=8/group) were treated with control or 0.2% adenine diet starting at 6 weeks of age along with vehicle or SK-124 (40 mg/kg) treatment by oral gavage once daily. Bottom: body weight of mice in the indicated treatment groups. […] (B, C) After 6 weeks of treatment, the indicated analytes were measured in fasting serum or urine. […] (D) H+E-stained kidney sections were assessed on a blinded basis by a pathologist for tubulointerstitial damage. (E) Whole kidney RNA from the indicated groups was analyzed by RT-qPCR for the indicated proximal tubule marker gene. For all panels in all figures, 1-way ANOVA was performed with Dunnett's posthoc analysis to analyze differences between treatment groups, p values less than 0.05 are shown in graph.
as §1, §2

[3] = system: whole kidney transcriptome; test: bulk RNA-sequencing of whole kidney, adenine CKD mice; type: in vivo, mouse; conditions: bulk RNA-seq
Procedure: FIGS. 6A-6F. The effects of SK-124 treatment at the transcriptomic level in adenine-induced mouse chronic kidney disease. RNA-seq was performed on whole kidney RNA samples (n=7/group) from FIG. 1. Volcano plot show gene regulated (>2-fold change, p(adj)<0.05) by CKD (versus control diet, A) or in CKD by SK-124 (versus vehicle control, B). In Volcano plot, representative fibrosis markers (Col3a1, Vim, Serpinel) and proximal tubule integrity (Lrp2. Atplai, and Hnf4a) are shown. Scatterplot (C) and heatmap (D) showing integration of individual RNA-seq comparisons. […] (E) Single cell RNA-sequencing was performed on dissociated kidneys from adenine diet fed mice treated with vehicle or SK-124 (n=4/group). […] (F) Relative cellularity of each annotated cluster is shown in pie chart format for adenine+vehicle (CKD-Veh) or adenine+SK-124 (CKD-SK-124) mice.
Isolated RNA samples from the mouse adenine diet study and human kidney organoid experiment were submitted to Novogene and bulk-RNA sequencing on NovaSeq X Plus Ilumina Novoseq Platform. Sequencing reads were mapped to the mouse reference genome (mm10/GRCm38) or human reference genome (GRCh38/hg38) using Salmon and differential gene expression analysis was performed using DESeq2.

[4] = system: intact proximal tubular epithelial genes; test: whole kidney RNA RT-qPCR of proximal tubule marker genes, adenine CKD mice; type: in vivo, mouse
Procedure: as §3, §1, §2
cDNA was prepared using Primescript RT kit (Takara Inc), with 750 ng RNA per reaction. […] Hmbs was used as a control housekeeping gene for mouse samples, and B-Actin was used for organoids, relative expression was calculated (2^-deltaCT method) and compared to the mean of control group if necessary. […]

[5] = system: SIK2/SIK3; conditions: reference to WO 2022/031928, Sato et al., Yoon et al., cited from earlier work
[6] = 0.2% adenine diet, 6 weeks, SK-124 40 mg/kg oral
[7] = adenine vs control diet, or SK-124 vs vehicle in CKD mice
[8] = whole kidney RNA, RT-qPCR, 6 weeks adenine diet

For `CCc1nnc(-c2c(OC)cc(-c3cnc4cc(-c5cnn(C)c5)ccn34)cc2OC)o1` [SK-124, 2-[2,6-Dimethoxy-4-[7-(1-methylpyrazol-4-yl)imidazo[1,2-a]pyridin-3-yl]phenyl]-5-ethyl-1,3,4-oxadiazole], the CKD-MBD markers ([1]; SK-124 40 mg/kg oral gavage once daily, or PTH 80 mcg/kg/d IP) was “reduced CKD-MBD markers”, the kidney function ([1]; SK-124 40 mg/kg oral gavage once daily, or PTH 80 mcg/kg/d IP, 40 mg/kg) was “improved kidney function” and the “fibrosis marker gene expression” value ([1]; whole kidney RT-qPCR, SK-124 40 mg/kg oral, or PTH 80 mcg/kg/d IP) was “reduced fibrosis marker gene expression”. The BUN [2, 6] was “reduced”, the creatinine [2, 6] was “reduced” and the “cystatin C” value [2, 6] was “reduced”. The hyperphosphatemia [2, 6] was “improved”, the “increased FGF-23” value [2, 6] was “improved” and the proteinuria [2, 6] was “reduced”. The secondary hyperparathyroidism [2, 6] was “improved”, the body weight ([2]; 0.2% adenine diet, 6 weeks, SK-124 40 mg/kg oral gavage once daily, 40 mg/kg) was “CKD-induced weight loss is prevented; also recorded: improved body weight” and the “renal (kidney) function and overall health” value ([2]; 0.2% adenine diet, 6 weeks, SK-124 40 mg/kg oral, 40 mg/kg) was “improves renal function; also recorded: dramatic improvements in renal function and overall health; also recorded: restores kidney function”. The tubule-interstitial damage ([2]; H+E-stained kidney sections, blinded pathologist) was “reduced tubule-interstitial damage”, the “CKD-induced changes of analytes in fasting serum or urine” value ([2]; after 6 weeks of treatment, SK-124 40 mg/kg oral) was “All CKD-induced changes were prevented” and the “patterns of dysregulated gene expression in CKD” value ([3]; scatterplot and heat map, SK-124 vs vehicle) was “conversely regulated; also recorded: reversed”. For the same compound, the “injury markers (Col3a1, Vim, Serpine1)” value [3, 7] was “suppressed”, the “markers of intact proximal epithelial cells (Lrp2, Atpla1, Hnf4a) / epithelial cell integrity” value [3, 7] was “preserved expression” and the epithelial cell integrity ([4]; adenine-induced CKD) was “preserves epithelial cell integrity”. For the same compound, the Atpla1 expression [4, 8] was “restored expression”, the Lrp2 expression [4, 8] was “restored expression” and the Slc34a1 expression [4, 8] was “restored expression”. The SIK isoform selectivity [5] was “specific SIK2/SIK3 inhibitor; also recorded: SIK2/SIK3-selective inhibitor” and the SIK isoform selectivity ([5]; listed as SIK-124) was “selective SIK2/SIK3 inhibitor”.
